For one test, the target named is T1, PRL-1 (Homo sapiens, UniProt Q93096).
T1 sequence (Q93096 1-173): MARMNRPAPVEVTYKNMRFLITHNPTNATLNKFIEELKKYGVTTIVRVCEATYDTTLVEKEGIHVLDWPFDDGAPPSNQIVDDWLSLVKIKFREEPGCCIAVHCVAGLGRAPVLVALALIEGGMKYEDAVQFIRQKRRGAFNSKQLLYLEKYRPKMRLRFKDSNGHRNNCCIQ
As to the kind of experiment: in vitro PRL-1 phosphatase enzymatic assay (tyrosine phosphatase / DiFMUP assay). The settings on record: for INHIBITION % (PRL-1 inhibitory activity): UA Natural Products Library hits; for inhibitory activity against PRL-1: Promega tyrosine phosphatase assay system, TNT-expressed His-tagged PRL-1 (FIG. 7C). Type of test: biochemical. The arrangement: INHIBITION % (PRL-1 inhibitory activity): concentration or dose not given beside the values. The text has this:
Assays that measure the removal of phosphates from proteins or peptides containing phosphotyrosine may also be employed in the present invention. One method of screening for drug targets would involve measuring inhibition of PRL-1-mediated tyrosine dephosphorylation. This assay detects the amount of free […] generated in a reaction by measuring the absorbance of a molybdate:malachite green:phosphate complex. This assay detects the activity of protein tyrosine phosphatases. Such assays or systems are commercially available from suppliers such as Promega (Madison, Wis.) or Applied Biosystems (Foster City, Calif.).
Another assay employed in the present invention is an improved method for measuring protein phosphatases for high-throughput screening involving 6,8-difluoro-4-methylumbelliferyl phosphate (DiFMUP). DiFMUP can assay both acid and alkaline phosphatase activity. […] The lower pka of its hydrolysis product makes DiFMUP a sensitive substrate for acid phosphatases, which is not possible with MUP because its fluorescence must be measured at alkaline pH. Furthermore, with its high quantum yield, DiFMUP increases the sensitivity of both acid and alkaline phosphatase measurements. […] DiFMUP enables the quantitation of as little as 1.0 pg/ml alkaline phosphatase.
For example, in the present invention, a bacterial expression system may be employed (i.e., pProEx vector) from which recombinant His-tagged PRl-1 protein may be obtained and purified using a column (i.e., a nickel column). The PRl-1 enzymatic activity in the presence of a drug compound of interest and in combination with DiFMUP substrate may be incubated (about 1 h) and the dephosphorylated substrate detected.
To produce PRL-1 protein for in vitro phosphatase assays, the PRL-1 gene was cloned into an expression vector with a His tag (pcDNA™ 3.1 from Invitrogen) and the protein expressed in vitro using the TNT coupled transcription and translation kit (Promega). […] The molecular weight of this PRL-1 protein (22KDa) is exactly the same as reported in the literature. An in vitro phosphatase assay was conducted using a tyrosine phosphatase assay system (Promega) to confirm the dephosphorylation activity of the recombinant PRL-1 protein.
This assay was optimized and used to screen various compound libraries for PRL-1 inhibitors. […] Compounds identified using the DiFMUP in vitro assay to screen compounds from the Nanosyn Combichem library and the NCI database include NS19999, NS45609, NS45336, and NCI668394 respectively.
The inventors first cloned the full length open reading frame of PRL-1 to the bacteria expression vector pProEx-HTa (Invitrogen) under the control of an IPTG inducible promoter. A six-histidine tag was added to the C-terminus of PRL-1 for quick purification of PRL-1 using the Ni-NTA system. The expression vector was transformed to bacteria strain BL21 and checked for PRL-1 expression using Western blot. For large scale expression, bacteria were grown in 500 ml LB media to logarithm phase (OD600 between 0.5 to 0.9) and induced to express PRL-1 by adding IPTG to final concentration of 1 mM and incubating for 4 hours. Bacteria were harvested by centrifugation at 5,000 rpm for 5 min and resuspended in the Native Binding Buffer (50 mM NaPO4, 0.5M NaCl, pH8.0, and 10 mM imidazole) at 16 ml/100 ml culture. The bacteria cells were then lysated by adding lmg/ml lysozyme and sonication. The cell lysate was centrifuged at 3,000 g for 15 min and the supernatant were then transferred to a 10-ml column pre-packed with 1.5 ml of Ni-NTA resin (Invitrogen). The column was gently agitated for 60 min to allow the binding of the His-tagged PRL-1 to the resin. After the binding reaction, the column was washed with the Native Wash Buffer (50 mM NaPO4, 0.5M NaCl, pH 8.0, and 20 mM imidazole) for 4 times. Finally, the PRL-1 protein was eluted off the column with 10 ml of Native Elution Buffer (50 mM NaPO4, 0.5 M NaCl, pH 8.0, and 250 mM imidazole). […]

The subject of another test is Mia PaCa-2 cells. The experiment in a line: cell proliferation assay in Mia PaCa-2 pancreatic cancer cells. Format: cell-based. The settings on record: Homo sapiens. As for the experimental part:
FIGS. 13A-13C. Inhibition of cell proliferation by PRL-1 inhibitors using a SRB staining assay. FIG.13A—Inhibition of MiaPaCa-2 cell growth by UA668394. Cells were exposed to different doses of UA668394 (0.2 μM to 200 μM) for four days by SRB (Sulforhodamine B) staining. […] FIG. 13B—Inhibition of cell proliferation in pancreatic cancer cells Panc-1 and Mia PaCa-2 by the compound UA66839-1 analog. FIG. 13C—Inhibition of cell proliferation in pancreatic cancer cells Panc-l and Mia PaCa-2 by the compound UA668394-2 analog.
Cell Proliferation Assays. Cell proliferation assays with these cell lines are performed to determine the effect of target inhibition on cell growth. Cells are seeded at 2.0-5.0×10^5 cells in 100-mm culture dishes and allow to attach overnight at 37° C. Adherent cells are washed and incubated with serum-free RPMI 1640 or RPMI containing 10% FBS for 48 h, after which they are trypsinized and counted using a hemocytometer. In addition, parallel experiments are perform and instead of cell counts, the proliferative status of the cell lines is determined using flow cytometric analysis of DNA content. For flow analysis, cells are stained with propidium iodide using a modified Krishan technique (Krishan, 1975). All samples are analyze with an FACSCAN flow cytometer (Becton Dickinson) using a 15 mWatt argon ion laser operated at 6 mWatts of power at 488 nm. Photomultiplier tube voltage is adjusted for each control sample to position the G0/G1 to channel 240 on a 1024 channel presentation. Histograms are analyze for cell cycle compartments using CELLQUEST (Becton Dickinson) analysis software. Histograms having 50K events are collected to maximize the statistical validity of the compartmental analysis. The results of this flow analysis allow the examination of the cell cycle distribution of the pancreatic cancer cell lines.
UA668394 was previously identified as a PRL-1 phosphatase inhibitor (IC50=7 μM) using high throughout library screening.
Compounds identified as being positive for anti-PRL-1 activity were tested for their ability to inhibit cell proliferation in human pancreatic cancer cells. The inhibitory activity of UA668394, UA19999 and UA45336 (Table 5) were examined. Cell proliferation assays were conducted using the pancreatic cancer cell line Mia PaCa-2, as described in Example 1. Briefly, 2.0-5.0×10^5 cells were seeded in 100-mm culture dishes and allowed to attach overnight at 37° C. Adherent cells were washed and incubated with serum-free RPMI 1640 or RPMI containing 10% FBS for 48 h, and treated with the compound of interest to determine its effect on the inhibition of cell growth. For example, cells were treated with of the UA668394, UA19999 and UA45336 compounds and analyzed for inhibition of cell proliferative using a MTS assay.

Setting [1] is: PRL-1 inhibitors identified by library screening, read-out: IC50.
[2] abbreviates: MIA PaCa-2, MTS cell proliferation assay, read-out: IC50, inhibition of cell proliferation in Mia PaCa-2 cells.

Values joined by “and” are separate entries in the source; they are usually repeats but may differ in a detail not shown here. Equal values may be shown once. Read-outs that look alike come from different tables or passages of the source.

Consider `N#CC1=C(N)NC(=S)C(C(N)=O)C1c1ccccc1F` (centres unmarked) [UA64859], for which the “INHIBITION % (PRL-1 inhibitory activity)” value at PRL-1 worked out at 76%.
For `O=C(O)CN(CCN(CC(=O)O)CC(=O)O)CC(=O)O` [EDTA, reference compound], the “inhibitory activity against PRL-1” value at PRL-1 is recorded as “some inhibitory activity”.
Take `O=C1C=C(NCCc2cc(Br)c(O)c(Br)c2)C(=O)c2ncccc21` [UA668394]: the IC50 is 7 µM and 7.2 µM on PRL-1 (setting [1]); 1.2 µM in the test with Mia PaCa-2 cells (MIA PaCa-2, 96 h, SRB staining, four days exposure, 0.2 μM to 200 μM (FIG. 13A legend), read-out: estimated IC50, inhibition of MiaPaCa-2 cell growth); 1.2 µM with Mia PaCa-2 cells (setting [2]).
On to `O=C1C=Cc2cc(Br)ccc2C1=O` [UA13082], for which, at PRL-1 (setting [1]), the IC50 amounted to 8.7 µM.
Consider `Brc1cccc(C2=NC(c3ccccc3)=C3C=CC=CN3C2)c1` [UA21497], for which the IC50 at PRL-1 (setting [1]) worked out at 0.1 µM.
Consider `NC(=O)c1cc2ccc(O)cc2oc1=O` [UA63415], for which the “INHIBITION % (PRL-1 inhibitory activity)” value at PRL-1 turned out to be 62%.
For the compound `O=C1C(O)=C([N+](=O)[O-])C(=O)c2ccccc21` [UA45609], the IC50 on PRL-1 (setting [1]) was found to be 17 µM.
For the compound `CC(=O)Oc1cc(OC(C)=O)c2c(c1)OC(=O)C(Cl)C2C` (centres unmarked) [UA14798], the IC50 on PRL-1 (setting [1]) stood at 64 µM.
As to `C=[N+](OC)c1nn(CC(=O)Nc2sc(C)c(C)c2C(N)=O)c(C)c1Br` [UA47548], the “INHIBITION % (PRL-1 inhibitory activity)” value at PRL-1 was determined as 70%.
As for `COC(=O)c1nc(O)c2ccccc2c1O` [UA45336], the IC50 amounted to 12.5 µM at PRL-1 (setting [1]) and 95 µM with Mia PaCa-2 cells (setting [2]).
With `Nc1cc(S(=O)(=O)C(F)(F)F)ccc1C(=O)O` [UA12882, 2-Amino-4-trifluoromethanesulfonyl-benzoic acid], the IC50 at PRL-1 (setting [1]) was found to be 25 µM.
Regarding `C=Cc1ccc2c3c(ccc(C=O)c13)C(Cl)=CC2=O` [UA61880], the “INHIBITION % (PRL-1 inhibitory activity)” value at PRL-1 came out at 50%.
Consider `CCC1=NN(c2ccccc2)C(=O)C(CC(=O)Nc2ccccc2)c2cc(OC)c(OC)cc21` (centres unmarked) [UA12812], for which, on PRL-1 (setting [1]), the IC50 is 66 µM.
Still for that read-out and setting: with `O=C(O)c1ccc2c(c1)C(=O)N(c1cccc3ccccc13)C2=O` [UA13464] the figure was 72 µM.
As for `C=CCn1c(SCC(=O)O)nnc1-c1ccc([N+](=O)[O-])cc1` [UA58428], at PRL-1, the “INHIBITION % (PRL-1 inhibitory activity)” value came to 42%.
As for `COc1cc(NCCC(C)=O)c2ncccc2c1` [UA292O9], the IC50 on PRL-1 (setting [1]) was determined as 41 µM.
On to `[Na+].[Na+].[Na+].[O]=[V]([O-])([O-])[O-]` [sodium orthovanadate, reference compound], for which, at PRL-1, the “inhibitory activity against PRL-1” value is “some inhibitory activity”.
Turning to `COc1ccccc1C=C1C(=O)NC(=O)NC1=O` [UA12499], the IC50 at PRL-1 (IC50, PRL-1 inhibitors identified by library screening) is 36.5 µM.
Turning to `CN1C(=O)C(=O)c2cc([N+](=O)[O-])ccc21` [UA19999], the values for the IC50 at PRL-1 (setting [1]) and in the test with Mia PaCa-2 cells (setting [2]) were 33 µM and 120 µM, respectively.

The record behind these values is patent publication US20070026398A1, “Protein tyrosine phosphatase-prl-1 a a marker and therapeutic target for pancreatic cancer” (priority 2003, published 2007).
